# Test results reported in article PMC7690448, “Generation of a hTERT-Immortalized Human Sertoli Cell Model to Study Transporter Dynamics at the Blood-Testis Barrier” (Pharmaceutics, 2020).
# Target: T1, ENT1 (Homo sapiens, UniProt Q99808)
# T1 construct: gene SLC29A1
# T1 sequence (Q99808 2-456): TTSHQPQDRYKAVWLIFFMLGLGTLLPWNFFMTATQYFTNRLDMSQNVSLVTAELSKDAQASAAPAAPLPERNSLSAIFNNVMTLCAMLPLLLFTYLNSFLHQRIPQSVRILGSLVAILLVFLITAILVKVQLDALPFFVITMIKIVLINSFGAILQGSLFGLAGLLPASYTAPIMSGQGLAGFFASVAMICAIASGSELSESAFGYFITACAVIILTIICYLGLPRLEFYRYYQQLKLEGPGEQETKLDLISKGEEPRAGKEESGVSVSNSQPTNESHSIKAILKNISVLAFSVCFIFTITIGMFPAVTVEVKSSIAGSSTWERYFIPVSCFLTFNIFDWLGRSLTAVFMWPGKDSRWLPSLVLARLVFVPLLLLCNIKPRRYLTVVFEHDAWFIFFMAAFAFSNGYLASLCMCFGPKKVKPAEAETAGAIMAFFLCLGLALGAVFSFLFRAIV
# Assay: NBMPR-sensitive [3H] uridine uptake in primary human Sertoli cells and hT-SerCs (endogenous ENT1)
# Type: cell-based
smiles,measurement,value
O=c1ccn([C@@H]2O[C@H](CO)[C@@H](O)[C@H]2O)c(=O)[nH]1 [uridine],NBMPR-sensitive [3H] uridine uptake in primary human Sertoli cells and hT-SerCs,These data suggest that uridine uptake into both cells is primarily mediated by ENT1 with minimal contribution by ENT2.
